# Experimental data reported in patent publication US11339419B2, “Scavenger protein(s) for improved preservation of analyte detection sensor(s) and method(s) of use thereof” (Siemens Healthcare Diagnostics Inc., priority 2017, dated 2022).
# Several values for one entry are separate records, joined by “and”; a condition that tells them apart may be missing. Equal entries are not always repeated.
# Key:
# [1] = tested on: sarcosine oxidase (BBI Solutions); test: BBI Solutions Sarcosine Oxidase Enzyme Absorbance with BSA and Proclin 300; assay type: biochemical
# Text: Absorbance measurements of the sarcosine oxidase enzyme(s) were taken via spectrophotometer for each aqueous solution (represented as columns 1-5 in Tables 1-4—column 6 is a blank), the absorbance being directly proportional to the enzyme activity being measured-which for Tables 1-4 is sarcosine oxidase enzyme activity. Accordingly, the higher the absorbance measurement, the higher the enzyme activity of sarcosine oxidase. […] In addition, the mean values, standard deviations, and coefficients of variation are also presented for the enzyme activity/absorbance of each aqueous solution. All measurements were taken at 37° C.
# [2] = tested on: sarcosine oxidase (Toyobo); test: Toyobo Sarcosine Oxidase Enzyme Absorbance with BSA and MIT; assay type: biochemical; conditions: for Sarcosine Oxidase Enzyme Absorbance, MEAN of 7-11 / Sarcosine Oxidase Enzyme Absorbance, replicates 7-11 / Sarcosine Oxidase Enzyme Absorbance, MEAN of 1-5 / Sarcosine Oxidase Enzyme Absorbance, solutions 1-5: 37° C.
# Experimental: Tables 1-4 depict aqueous solutions comprising varying concentrations of BSA (at concentrations of 0 mg/mL, 5 mg/mL, 25 mg/mL, and 50 mg/mL), varying concentrations of MIT (at concentrations of 50 parts per million and 100 parts per million) or Proclin™ 300 (at concentrations of 0.7% and 1.4%) biocides over a particular time period (measurements were taken at days 0, 4, and 14 after exposure of the enzyme(s) to the aqueous solutions) and the associated enzyme absorbance measurements for sarcosine oxidase (commercially offered for sale by BBI Solutions and Toyobo). Absorbance measurements of the sarcosine oxidase enzyme(s) were taken via spectrophotometer for each aqueous solution (represented as columns 1-5 in Tables 1-4—column 6 is a blank), the absorbance being directly proportional to the enzyme activity being measured-which for Tables 1-4 is sarcosine oxidase enzyme activity. Accordingly, the higher the absorbance measurement, the higher the enzyme activity of sarcosine oxidase. Columns 7-11 represent five replicate readings in which the aqueous solution only contains BSA (i.e., there is no biocide(s) present in the aqueous solution). In addition, the mean values, standard deviations, and coefficients of variation are also presented for the enzyme activity/absorbance of each aqueous solution. All measurements were taken at 37° C.
# As depicted below in Table 2, sarcosine oxidase (commercially offered for sale by Toyobo) enzyme activity is measured against various concentrations of MIT (biocide) and BSA (scavenger protein) over a period of 14 days (with absorbance measurements taken at 0, 4, and 14 days) for five different aqueous solutions (represented as columns 1-5-column 6 is a blank).
# [3] = Day 0, BSA 5 mg/mL only, no Proclin 300, line of 0.7% Proclin 300
# [4] = Day 0, BSA 5 mg/mL only, no Proclin 300, line of 1.4% Proclin 300
# [5] = Day 0, BSA 25 mg/mL only, no Proclin 300, line of 0.7% Proclin 300
# [6] = Day 0, BSA 25 mg/mL only, no Proclin 300, line of 1.4% Proclin 300
# [7] = Day 0, BSA 50 mg/mL only, no Proclin 300, line of 0.7% Proclin 300
# [8] = Day 0, BSA 50 mg/mL only, no Proclin 300, line of 1.4% Proclin 300
# [9] = Day 4, BSA 5 mg/mL only, no Proclin 300, line of 0.7% Proclin 300
# [10] = Day 4, BSA 5 mg/mL only, no Proclin 300, line of 1.4% Proclin 300
# [11] = Day 4, BSA 25 mg/mL only, no Proclin 300, line of 0.7% Proclin 300
# [12] = Day 4, BSA 25 mg/mL only, no Proclin 300, line of 1.4% Proclin 300
# [13] = Day 4, BSA 50 mg/mL only, no Proclin 300, line of 0.7% Proclin 300
# [14] = Day 4, BSA 50 mg/mL only, no Proclin 300, line of 1.4% Proclin 300
# [15] = Day 14, BSA 5 mg/mL only, no Proclin 300, line of 0.7% Proclin 300
# [16] = Day 14, BSA 5 mg/mL only, no Proclin 300, line of 1.4% Proclin 300
# [17] = Day 14, BSA 25 mg/mL only, no Proclin 300, line of 0.7% Proclin 300
# [18] = Day 14, BSA 25 mg/mL only, no Proclin 300, line of 1.4% Proclin 300
# [19] = Day 14, BSA 50 mg/mL only, no Proclin 300, line of 0.7% Proclin 300
# [20] = Day 14, BSA 50 mg/mL only, no Proclin 300, line of 1.4% Proclin 300
# [21] = Day 0, 5 mg/mL BSA only, no MIT (50 ppm MIT row)
# [22] = Day 0, 5 mg/mL BSA only, no MIT (100 ppm MIT row)
# [23] = Day 0, 25 mg/mL BSA only, no MIT (50 ppm MIT row)
# [24] = Day 0, 25 mg/mL BSA only, no MIT (100 ppm MIT row)
# [25] = Day 0, 50 mg/mL BSA only, no MIT (50 ppm MIT row)
# [26] = Day 0, 50 mg/mL BSA only, no MIT (100 ppm MIT row)
# [27] = Day 0, 50 ppm MIT, 25 mg/mL BSA
# [28] = Day 0, 50 ppm MIT, 50 mg/mL BSA
# [29] = Day 4, 5 mg/mL BSA only, no MIT (50 ppm MIT row)
# [30] = Day 4, 5 mg/mL BSA only, no MIT (100 ppm MIT row)
substance,measurement,setting,value
bovine serum albumin [BSA],"Absorbance, solutions 7-11",[1]; [3],1.447 and 1.677 and 1.453 and 1.748
same,"MEAN absorbance, solutions 7-11",[1]; [3],1.51
same,"Absorbance, solutions 7-11",[1]; [4],1.464 and 1.437 and 1.453 and 1.458 and 1.444
same,"MEAN absorbance, solutions 7-11",[1]; [4],1.40
same,"Absorbance, solutions 7-11",[1]; [5],1.429 and 1.441 and 1.415 and 1.398 and 1.406
same,"MEAN absorbance, solutions 7-11",[1]; [5],1.37
same,"Absorbance, solutions 7-11",[1]; [6],1.39 and 1.396 and 1.375 and 1.392 and 1.376
same,"MEAN absorbance, solutions 7-11",[1]; [6],1.34
same,"Absorbance, solutions 7-11",[1]; [7],1.376 and 1.375 and 1.399 and 1.416 and 1.421
same,"MEAN absorbance, solutions 7-11",[1]; [7],1.35
same,"Absorbance, solutions 7-11",[1]; [8],1.402 and 1.394 and 1.401 and 1.397 and 1.396
same,"MEAN absorbance, solutions 7-11",[1]; [8],1.35
same,"Absorbance, solutions 7-11",[1]; [9],1.505 and 1.507 and 1.518 and 1.472 and 1.484
same,"MEAN absorbance, solutions 7-11",[1]; [9],1.45
same,"Absorbance, solutions 7-11",[1]; [10],1.446 and 1.471 and 1.449 and 1.46 and 1.484
same,"MEAN absorbance, solutions 7-11",[1]; [10],1.42
same,"Absorbance, solutions 7-11",[1]; [11],1.45 and 1.451 and 1.465 and 1.418 and 1.415
same,"MEAN absorbance, solutions 7-11",[1]; [11],1.40
same,"Absorbance, solutions 7-11",[1]; [12],1.416 and 1.421 and 1.436 and 1.431 and 1.426
same,"MEAN absorbance, solutions 7-11",[1]; [12],1.38
same,"Absorbance, solutions 7-11",[1]; [13],1.416 and 1.425 and 1.435 and 1.402 and 1.421
same,"MEAN absorbance, solutions 7-11",[1]; [13],1.38
same,"Absorbance, solutions 7-11",[1]; [14],1.38 and 1.397 and 1.399 and 1.403
same,"MEAN absorbance, solutions 7-11",[1]; [14],1.35
same,"Absorbance, solutions 7-11",[1]; [15],1.53 and 1.542 and 1.526 and 1.538 and 1.535
same,"MEAN absorbance, solutions 7-11",[1]; [15],1.49
same,"Absorbance, solutions 7-11",[1]; [16],1.527 and 1.53 and 1.526 and 1.566
same,"MEAN absorbance, solutions 7-11",[1]; [16],1.49
same,"Absorbance, solutions 7-11",[1]; [17],1.498 and 1.527 and 1.533 and 1.503 and 1.505
same,"MEAN absorbance, solutions 7-11",[1]; [17],1.47
same,"Absorbance, solutions 7-11",[1]; [18],1.499 and 1.497 and 1.533 and 1.539 and 1.525
same,"MEAN absorbance, solutions 7-11",[1]; [18],1.47
same,"Absorbance, solutions 7-11",[1]; [19],1.493 and 1.499 and 1.505 and 1.513 and 1.541
same,"MEAN absorbance, solutions 7-11",[1]; [19],1.46
same,"Absorbance, solutions 7-11",[1]; [20],1.467 and 1.491 and 1.482 and 1.534 and 1.529
same,"MEAN absorbance, solutions 7-11",[1]; [20],1.46
same,absorbance of the sarcosine oxidase enzyme compared to samples containing 0 mg/mL of BSA,"[1]; days 4 and 14, 5, 25 and 50 mg/mL BSA, with Proclin 300",increased absorbance
same,"sarcosine oxidase absorbance, solutions 7-11","[1]; days 4 and 14, only BSA, no Proclin 300",increased (or at least maintained)
same,"Sarcosine Oxidase Enzyme Absorbance, MEAN of 7-11",[2]; [21],1.41
same,"Sarcosine Oxidase Enzyme Absorbance, replicates 7-11",[2]; [21],1.444 and 1.45 and 1.459 and 1.485 and 1.463
same,"Sarcosine Oxidase Enzyme Absorbance, MEAN of 7-11",[2]; [22],1.39
same,"Sarcosine Oxidase Enzyme Absorbance, replicates 7-11",[2]; [22],1.459 and 1.421 and 1.427 and 1.439 and 1.436
same,"Sarcosine Oxidase Enzyme Absorbance, MEAN of 7-11",[2]; [23],1.40
same,"Sarcosine Oxidase Enzyme Absorbance, replicates 7-11",[2]; [23],1.448 and 1.453 and 1.45 and 1.442 and 1.444
same,"Sarcosine Oxidase Enzyme Absorbance, MEAN of 7-11",[2]; [24],1.38
same,"Sarcosine Oxidase Enzyme Absorbance, replicates 7-11",[2]; [24],1.447 and 1.422 and 1.418 and 1.443 and 1.413
same,"Sarcosine Oxidase Enzyme Absorbance, MEAN of 7-11",[2]; [25],1.35
same,"Sarcosine Oxidase Enzyme Absorbance, replicates 7-11",[2]; [25],1.387 and 1.402 and 1.388 and 1.408 and 1.406
same,"Sarcosine Oxidase Enzyme Absorbance, MEAN of 7-11",[2]; [26],1.38
same,"Sarcosine Oxidase Enzyme Absorbance, replicates 7-11",[2]; [26],1.437 and 1.434 and 1.424 and 1.423 and 1.416
same,% Bias,"[2]; Day 0, 50 ppm MIT vs no MIT, 5 mg/mL BSA",−0.3%
same,% Bias,"[2]; Day 0, 50 ppm MIT vs no MIT, 25 mg/mL BSA",−1.0%
same,% Bias,"[2]; Day 0, 50 ppm MIT vs no MIT, 50 mg/mL BSA",2.4%
same,"Sarcosine Oxidase Enzyme Absorbance, MEAN of 1-5","[2]; Day 0, 50 ppm MIT, 5 mg/mL BSA",1.41
same,"Sarcosine Oxidase Enzyme Absorbance, solutions 1-5","[2]; Day 0, 50 ppm MIT, 5 mg/mL BSA",1.445 and 1.446 and 1.443 and 1.456 and 1.457
same,"Sarcosine Oxidase Enzyme Absorbance, MEAN of 1-5",[2]; [27],1.39
same,"Sarcosine Oxidase Enzyme Absorbance, solutions 1-5",[2]; [27],1.432 and 1.423 and 1.425 and 1.431 and 1.427
same,"Sarcosine Oxidase Enzyme Absorbance, MEAN of 1-5",[2]; [28],1.39
same,"Sarcosine Oxidase Enzyme Absorbance, solutions 1-5",[2]; [28],1.439 and 1.435 and 1.441
same,% Bias,"[2]; Day 0, 100 ppm MIT vs no MIT, 5 mg/mL BSA",0.3%
same,% Bias,"[2]; Day 0, 100 ppm MIT vs no MIT, 25 mg/mL BSA",−0.7%
same,% Bias,"[2]; Day 0, 100 ppm MIT vs no MIT, 50 mg/mL BSA",−1.1%
same,"Sarcosine Oxidase Enzyme Absorbance, MEAN of 1-5","[2]; Day 0, 100 ppm MIT, 5 mg/mL BSA",1.39
same,"Sarcosine Oxidase Enzyme Absorbance, MEAN of 1-5","[2]; Day 0, 100 ppm MIT, 25 mg/mL BSA",1.37
same,"Sarcosine Oxidase Enzyme Absorbance, MEAN of 1-5","[2]; Day 0, 100 ppm MIT, 50 mg/mL BSA",1.37
same,"Sarcosine Oxidase Enzyme Absorbance, MEAN of 7-11",[2]; [29],0.10
same,"Sarcosine Oxidase Enzyme Absorbance, replicates 7-11",[2]; [29],0.251 and 0.247 and 0.255 and 0.261 and 0.267
same,"Sarcosine Oxidase Enzyme Absorbance, MEAN of 7-11",[2]; [30],0.79
same,"Sarcosine Oxidase Enzyme Absorbance, replicates 7-11",[2]; [30],0.933 and 0.941 and 0.967 and 0.963
same,"Sarcosine Oxidase Enzyme Absorbance, MEAN of 7-11","[2]; Day 4, 25 mg/mL BSA only, no MIT (50 ppm MIT row)",1.22
